According to US20240277890A1, “ANTIMICROBIAL ARTICLES COMPRISING POLYURETHANE” (Amicoat AS, priority 2021, published 2024):
≈ marks a conversion by molar mass, not a printed value. Where two headings read alike, the source gives them in different places. Peptide text beside a SMILES is read from it. * marks the point of attachment. NHPhenethyl = c1ccc(CCN*)cc1

How the values were obtained:
[1] = test system: Methicillin resistant Staphylococcus epidermidis (MRSE) strain ATCC 27626
[2] = test system: Methicillin resistant Staphylococcus aureus (MRSA) strain ATCC 33591
trypsin = assay: in vitro; type: in vitro ADME; settings: pH 8.6
Procedure: Each peptide was dissolved in a 0.1 M NH4HCO3 buffer (pH 6.5) to yield a final peptide concentration of 1 mg/ml. A trypsin solution was prepared by dissolving 1 mg of trypsin in 50 ml 0.1 M NH4HCO3 buffer (pH 8.2). For the stability determination, 250 μl freshly made trypsin solution and 250 μl peptide solution were incubated in 2 ml of 0.1 M NH4HCO3 buffer (pH 8.6) at 37° C. on a rocking table. Aliquots of 0.5 ml were sampled at different time intervals, diluted with 0.5 ml water:acetonitrile (60:40 v/v) containing 1% TFA and analysed by RP-HPLC as described above. Samples without trypsin addition taken at 0 h and after 20 h at 37° C. were used as negative controls. Integration of the peak area at 254 nm for samples taken during the first 5 hours of the assay was used to generate the τ1/2.

[3] = test system: Staphylococcus aureus, strain ATCC 25923
[4] = test system: Salmonella sp - multi-drug resistant clinical isolate; assay: MIC microbroth dilution (CLSI); type: cell-based
[5] = test system: Candida parapsilosis ATCC 22019; assay: MIC microbroth dilution (CLSI), extra control strain; type: cell-based; design: unit not given here; settings: C. parapsilosis ATCC 22019; RPMI 1640
[6] = test system: Shigella sp - antibiotic-susceptible clinical isolate; assay: MIC microbroth dilution (CLSI); type: cell-based
[7] = test system: Staphylococcus haemolyticus - antibiotic susceptible clinical isolate; settings: S. haemolyticus antibiotic susceptible isolate
[8] = test system: Haemophilus influenzae - ATCC 47247; assay: MIC microbroth dilution (CLSI), extra control strain; design: unit not given beside the values; settings: H. influenzae ATCC 47247; plate type HTM
[9] = test system: Enterococcus faecalis - ATCC 29212 antibiotic-susceptible control strain; design: MIC (repeat control strain): unit not given beside the values; settings: E. faecalis ATCC 29212
[10] = test system: Microsporum canis - G.R. Micro collection; settings: M. canis
[11] = test system: Eggerthella lenta - ATCC 43055; assay: MIC microbroth dilution (CLSI), extra control strain; type: cell-based; design: unit not given here; settings: E. lenta ATCC 43055; SBB
[12] = test system: Clostridium difficile - antibiotic-susceptible clinical isolate; assay: MIC microbroth dilution (CLSI); type: cell-based; design: unit not given beside the values; settings: C. difficile antibiotic-susceptible
Procedure: Supplemented Brucella broth (SBB) was used for the anaerobic strains with an inoculum of approximately 10^6 CFU/mL. SBB is a broth consisting of 1% peptone, 0.5% ‘Lab-lemco’, 1% glucose and 0.5% sodium chloride supplemented with 5 μg/L haemin and 1 μg/L vitamin K (both obtained from Sigma Aldrich Ltd.) Yeast and filamentous fungal MIC were performed in MOPS buffered RPMI 1640 medium (MOPS buffer obtained from Sigma Aldrich Ltd., RPMI 1640 obtained from Invitrogen Ltd, Paisley, Scotland). The yeast inocula were in the range 7.5×10^2-4×10^3 CFU/mL and the filamentous fungi approximately 8×10^3-1×10^5 CFU/mL.

[13] = test system: Pseudomonas aeruginosa ATCC27853 - antibiotic-susceptible type strain; design: MIC (repeat control strain): unit not given beside the values; settings: P. aeruginosa ATCC 27853
[14] = test system: Staphylococcus aureus FDA486; assay: Murine skin infection model, one day topical treatment; type: in vivo, mice; settings: cream or gel containing 2% (w/w) of compound; three topical treatments at three hourly intervals; compared to placebo
Procedure: (§1) The skin of mice was infected with Staphylococcus aureus or Streptococcus pyogenes and subsequently given a total of three treatments at three hourly intervals. Three hours after the last treatment, skin biopsies were collected and the number of colony forming units (CFUs) present in the skin sample was determined. Results are shown in FIGS. 3, 4 and 5 expressed as the number of colony forming units per mouse.

[15] = test system: Streptococcus pyogenes CS301; assay: as above; type: in vivo, mice
Procedure: as §1

[16] = test system: Escherichia coli ATCC25922 - antibiotic-susceptible type strain; design: MIC (repeat control strain): unit not given beside the values; settings: E. coli ATCC 25922
[17] = test system: Staphylococcus aureus ATCC 29213 - antibiotic-susceptible control strain; design: MIC (repeat control strain): unit not given beside the values; settings: S. aureus ATCC 29213
[18] = test system: Bacteroides fragilis - ATCC 25285; assay: MIC microbroth dilution (CLSI), extra control strain; type: cell-based; design: unit not given here; settings: B. fragilis ATCC 25285; SBB
[19] = test system: Salmonella sp - antibiotic-susceptible clinical isolate; assay: MIC microbroth dilution (CLSI); type: cell-based
P. aeruginosa = settings: Table 5
E. coli = settings: Table 5
[20] = Staphylococcus aureus ATCC 25923

With `N=C(N)NCCC[C@H](NC(=O)[C@H](Cc1ccc(-c2ccc3ccccc3c2)cc1)NC(=O)[C@@H](N)CCCNC(=N)N)C(=O)NCCc1ccccc1` [Compound 1] the “MIC MRSE” value ([1]; MRSE ATCC 27626) was less than 3 µM, the “MIC MRSA” value ([2]; MRSA ATCC 33591) was less than 3 µM and the half-life at 0.1 mg/ml (trypsin) was greater than 24 h. The “MIC S. aureus” value [3, 20] was 4 µM (≈ 2.83 µg/mL).

In the case of `CC(C)(C)c1cc(C(C)(C)C)c2[nH]c(C(C)(C)C)c(CC(NC(=O)C(N)CCCNC(=N)N)C(=O)NC(CCCNC(=N)N)C(=O)NCCc3ccccc3)c2c1` (stereo not shown) [Compound 2], the MIC [4] is reported as 8, the “MIC (control strain)” value [5] is reported as 8 and the MIC [6] is reported as 8. The MIC [7] was 4, the “MIC (control strain)” value [8] was 4 and the “MIC (repeat control strain)” value ([9]; plate type Fresh MHB) was 4. For the same molecule, the “MIC (repeat control strain)” value ([9]; plate type Frozen MHB) was 8, the MIC [10] was 8 and the “MIC (control strain)” value [11] was 32. The MIC [12] was 16, the “MIC (repeat control strain)” value ([13]; plate type Fresh MHB) was 8 and the “MIC (repeat control strain)” value ([13]; plate type Frozen MHB) was 8. For the same molecule, the “number of CFUs in skin biopsy” value [14] was “the number of CFUs was reduced”, the “number of CFUs in skin biopsy” value ([15]; 1% or 2% gel, three topical treatments at three hourly intervals, compared to placebo gel and bactroban) was “more effective at reducing the number of CFUs than the placebo gel or the bactroban” and the “number of CFUs in skin biopsy, 2% gel versus 1% gel” value ([15]; gel containing 2% compared to gel containing 1%) was “more effective than the gel containing only 1% of compound 2”. For the same molecule, the “MIC (repeat control strain)” value ([16]; plate type Fresh MHB) was 8, the “MIC (repeat control strain)” value ([16]; plate type Frozen MHB) was 8 and the “MIC (repeat control strain)” value ([17]; plate type Fresh MHB) was 2. The “MIC (repeat control strain)” value ([17]; plate type Frozen MHB) was 4, the “MIC (control strain)” value [18] was 64 and the MIC [19] was 8.

In the case of `N=C(N)NCCC[C@H](NC(=O)[C@H](Cc1ccc(-c2cccc3ccccc23)cc1)NC(=O)[C@@H](N)CCCNC(=N)N)C(=O)NCCc1ccccc1` [Compound 3], the “MIC MRSE” value ([1]; MRSE ATCC 27626) is reported as 3 µM (≈ 2.12 µg/mL) and the “MIC MRSA” value ([2]; MRSA ATCC 33591) is reported as 3 µM (≈ 2.12 µg/mL).

`N=C(N)NCCC[C@H](NC(=O)[C@H](Cc1ccc(-c2ccc(-c3ccccc3)cc2)cc1)NC(=O)[C@@H](N)CCCNC(=N)N)C(=O)NCCc1ccccc1` [Compound 5] was tested, and the “MIC MRSE” value ([1]; MRSE ATCC 27626) was 3 µM (≈ 2.2 µg/mL), the “MIC MRSA” value ([2]; MRSA ATCC 33591) was 3 µM (≈ 2.2 µg/mL) and the “MIC S. aureus” value [3, 20] was 5 µM (≈ 3.66 µg/mL).

For `N=C(N)NCCC[C@H](NC(=O)[C@H](Cc1c[nH]c2ccccc12)NC(=O)[C@@H](N)CCCNC(=N)N)C(=O)NCCc1ccccc1` [Compound 6, reference compound] (H-Arg-Trp-Arg-NHPhenethyl), the “MIC MRSE” value ([1]; MRSE ATCC 27626) was 81 µM (≈ 50.2 µg/mL), the “MIC MRSA” value ([2]; MRSA ATCC 33591) was 97 µM (≈ 60.1 µg/mL) and the “MIC S. aureus” value [3, 20] was 145 µM (≈ 89.9 µg/mL).

With `CCCCNC(=O)[C@H](CCCNC(=N)N)NC(=O)[C@H](Cc1c(C(C)(C)C)[nH]c2c(C(C)(C)C)cc(C(C)(C)C)cc12)NC(=O)[C@@H](N)CCCNC(=N)N` [Compound 9] the “C. albicans (MIC)” value (C. albicans) was 10 µg/mL, the “MRSE (MIC)” value ([1]; ATCC 27626) was less than 2 µg/mL and the “MRSA (MIC)” value ([2]; ATCC 33591) was 3 µg/mL. For the same molecule, the “S. pyogenes (MIC)” value (S. pyogenes) was 2 µg/mL and the “S. aureus (MIC)” value ([3]; ATCC 25923) was 2 µg/mL.

In the case of `CCCNC(=O)[C@H](CCCNC(=N)N)NC(=O)[C@H](Cc1c(C(C)(C)C)[nH]c2c(C(C)(C)C)cc(C(C)(C)C)cc12)NC(=O)[C@@H](N)CCCNC(=N)N` [Compound 10], the “C. albicans (MIC)” value (C. albicans) is reported as 10 µg/mL, the “MRSE (MIC)” value ([1]; ATCC 27626) is reported as less than 2 µg/mL and the “MRSA (MIC)” value ([2]; ATCC 33591) is reported as 3 µg/mL. For the same molecule, the “S. pyogenes (MIC)” value (S. pyogenes) was 2 µg/mL and the “S. aureus (MIC)” value ([3]; ATCC 25923) was 2 µg/mL.

With `CCCCCCCCCCCCCCCCNC(=O)[C@H](CCCNC(=N)N)NC(=O)[C@H](Cc1c(C(C)(C)C)[nH]c2c(C(C)(C)C)cc(C(C)(C)C)cc12)NC(=O)[C@@H](N)CCCNC(=N)N` [Compound 11] the “P. aeruginosa (MIC)” value (P. aeruginosa) was greater than 100 µg/mL, the “C. albicans (MIC)” value (C. albicans; Table 5) was greater than 100 µg/mL and the “MRSE (MIC)” value ([1]; MRSE ATCC 27626) was 4 µg/mL. The “MRSA (MIC)” value ([2]; MRSA ATCC 33591) was 4 µg/mL, the “E. coli (MIC)” value (E. coli) was greater than 100 µg/mL and the “S. pyogenes (MIC)” value (S. pyogenes; Table 5) was 6 µg/mL. For the same molecule, the “S. aureus (MIC)” value [3, 20] was 5 µg/mL.

With `CC(C)CNC(=O)[C@H](CCCNC(=N)N)NC(=O)[C@H](Cc1c(C(C)(C)C)[nH]c2c(C(C)(C)C)cc(C(C)(C)C)cc12)NC(=O)[C@@H](N)CCCNC(=N)N` [Compound 12] the “C. albicans (MIC)” value (C. albicans) was 10 µg/mL, the “MRSE (MIC)” value ([1]; ATCC 27626) was 2 µg/mL and the “MRSA (MIC)” value ([2]; ATCC 33591) was 3 µg/mL. For the same molecule, the “S. pyogenes (MIC)” value (S. pyogenes) was 2 µg/mL and the “S. aureus (MIC)” value ([3]; ATCC 25923) was less than 2 µg/mL.

In the case of `CC(C)(C)c1cc(C(C)(C)C)c2[nH]c(C(C)(C)C)c(C[C@H](NC(=O)[C@@H](N)CCCNC(=N)N)C(=O)N[C@@H](CCCNC(=N)N)C(=O)NC3CCCCC3)c2c1` [Compound 13], the “C. albicans (MIC)” value (C. albicans) is reported as 10 µg/mL, the “MRSE (MIC)” value ([1]; ATCC 27626) is reported as 2 µg/mL and the “MRSA (MIC)” value ([2]; ATCC 33591) is reported as 2 µg/mL. The “S. pyogenes (MIC)” value (S. pyogenes) was less than 2 µg/mL and the “S. aureus (MIC)” value ([3]; ATCC 25923) was less than 2 µg/mL.

In the case of `CC(C)(C)c1cc(C(C)(C)C)c2[nH]c(C(C)(C)C)c(C[C@H](NC(=O)[C@@H](N)CCCNC(=N)N)C(=O)N[C@@H](CCCNC(=N)N)C(=O)NC3CCCC3)c2c1` [Compound 14], the “C. albicans (MIC)” value (C. albicans) is reported as 10 µg/mL, the “MRSE (MIC)” value ([1]; ATCC 27626) is reported as less than 2 µg/mL and the “S. pyogenes (MIC)” value (S. pyogenes) is reported as 2 µg/mL. For the same molecule, the “S. aureus (MIC)” value ([3]; ATCC 25923) was less than 2 µg/mL.
